Test results: patent US5652222A, “Selective inhibition of leukemic cell proliferation by bcr-abl antisense oligonucleotides” (Temple University-of The Commonwealth System of Higher …, priority 1993, dated 1997)
Several values for one entry are separate records, joined by “and”; a condition that tells them apart may be missing. Identical values can stand only once.

Columns and labels:
[1] = test system: 1:1 mix of normal MNC and CML blast crisis cells; test: Morphology (Giemsa staining) of cells from residual colonies; format: cell-based, human
From the text: (§1) Normal bone marrow mononuclear cells (MNC) were obtained by aspiration from consenting volunteers and enriched for hematopoietic progenitors as previously reported by numerous investigators (Zamecnick et al., Proc. Natl. Acad. Sci. U.S.A. 83, 4143-4147 (1986); Caracciolo et al., J. Clin. Invest. 85, 55-61 (1990)). In brief, marrow cells were subjected to Ficoll-Hypaque density gradient sedimentation and then depleted of adherent monocyte-macrophage and T-lymphocytes by adherence to plastic Petri dishes and rosetting with neuraminidase-treated sheep red blood cells, respectively. Philadelphia chromosome-positive blast cells were isolated by Ficoll-Hypaque density gradient sedimentation from a CML patient in blast crisis (L-6 type junction). […] The residual non-blast cells had the morphological appearance of small lymphocytes. 25,000 MNC and 25,000 CML blast cells were combined and incubated with bcr-abl breakpoint-Specific antisense oligomer (SEQ ID NO:3) (40 μg/ml at h 0; 20 μg/ml 18 hours later) or with a 4 nucleotide mismatch bcr-abl antisense oligomer (SEQ ID NO:2) (40 μg/ml at 0 h; 20 μg/ml 18 hours later) or left untreated. […] At the end of the incubation period colonies were counted. […]

[2] = test system: Philadelphia chromosome-positive blast cells of CML patients in blast crisis, L-6 (b2a2) type junction; test: Colony formation of CML blast crisis patient cells expressing the b2a2 (L-6) junction; format: cell-based, human
[3] = test system: CML blast crisis cells (L-6 type junction); test: CFU-L colony formation of CML blast crisis cells (Example 3); format: cell-based, human
From the text: Normal bone marrow mononuclear cells (MNC) were obtained by aspiration from consenting volunteers and enriched for hematopoietic progenitors as previously reported by numerous investigators (Zamecnick et al., Proc. Natl. Acad. Sci. U.S.A. 83, 4143-4147 (1986); Caracciolo et al., J. Clin. Invest. 85, 55-61 (1990)). In brief, marrow cells were subjected to Ficoll-Hypaque density gradient sedimentation and then depleted of adherent monocyte-macrophage and T-lymphocytes by adherence to plastic Petri dishes and rosetting with neuraminidase-treated sheep red blood cells, respectively. Philadelphia chromosome-positive blast cells were isolated by Ficoll-Hypaque density gradient sedimentation from a CML patient in blast crisis (L-6 type junction). […] The residual non-blast cells had the morphological appearance of small lymphocytes. 25,000 MNC and 25,000 CML blast cells were combined and incubated with bcr-abl breakpoint-Specific antisense oligomer (SEQ ID NO:3) (40 μg/ml at h 0; 20 μg/ml 18 hours later) or with a 4 nucleotide mismatch bcr-abl antisense oligomer (SEQ ID NO:2) (40 μg/ml at 0 h; 20 μg/ml 18 hours later) or left untreated. Four hours after the second addition of oligonucleotides to the cultures, cells were seeded into duplicate methylcellulose dishes containing IL-3 (20 U/ml) and GM-CSF (5 ng/ml) and allowed to grow for an additional 12 days. At the end of the incubation period colonies were counted.
The data is shown in Table 3, below, wherein values represent mean ± standard deviation of duplicate control cultures (no oligonucleotide added) and duplicate experimental cultures from two separate experiments. Colony forming unit-granulocyte macrophage (CFU-GM)-derived colonies consisted of 50 or more cell aggregates, while CFU-GM-derived clusters were defined as aggregates of between 4 and 40 cells. These are normal hematopoietic colonies derived from progenitors with the capability to differentiate along the granulocytic and macrophage lineages. […]

[4] = test system: 1:1 mixtures of normal marrow progenitors and CML blast crisis cells; test: CFU-GM + CFU-L colony formation of 1:1 mixtures of normal marrow progenitors and CML blast crisis cells; format: cell-based, human; details: Table 3; 1:1 mixture; 40 μg/ml at 0 h, 20 μg/ml 18 h later; 12 days; mean ± SD; control 978 ± 24
From the text: as §1

[5] = test system: bcr-abl (b2/a2) transcripts; test: RT-PCR of bcr-abl transcripts in tissues of leukemic SCID mice; format: in vivo, SCID mice (human leukemic cells)
Experimental: According to a third assay, the extent of leukemic disease was assessed by chain RT-PCR to monitor the expression of b2/a2 transcripts (assay sensitivity=[…]) in total RNA isolated from bone marrow cells, splenocytes, peripheral blood leukocytes, liver, lung and brain tissues. Depending on the number of BV173 cells injected, various numbers of leukemic cells were detected by clonogenic assay and RT-PCR in murine tissues, 3 and 6 weeks after injection. A few days before the expected death of leukemic SCID mice, approximately 80, 65, and 10% cALLA-positive cells were detected in bone marrow cells, splenocytes and peripheral blood leukocytes, respectively.
(§2) To determine whether synthetic phosphorothioate oligodeoxynucleotides targeted against the bcr-abl junction of […] cells would modify the disease process in SCID mice. SCID mice were injected with 10^6 BV173 cells. The mice then received 1 mg of sense (ATCAATAAGG AAGCCCTTCAGCG, SEQ ID NO:34) or antisense ([…] ATTGAT, SEQ ID NO:29) b2/a2 bcr-abl phosphorothioate oligodeoxynucleotides (pyrogen leven <1 Eu/mg; 0.2 ml in Iscove modified Dulbecco medium in 5-10 seconds) intravenously for each of 9 consecutive days, beginning either 7 or 21 days after introducing 10^6 BV173 cells. Control mice received the diluent (iscove's modified Dulbecco medium) only. These time points approximate distinct disease stages in humans.
At 7 (+7) and 21 (+21) days after injecting SCID mice with 10^6 BV173 cells, single cell suspensions were prepared from various tissues. After lysing red cells with 0.83% NH4 Cl buffered with 0.17 mM Tris-HCl, pH 7.4, total RNA was extracted as described (Chomczynski and Sacchi, Anal. Biochem. 162, 156 (1987)) and the suspension was divided into two equal aliquots. Bcr-abl and β-actin transcripts were reverse-transcribed and amplified with specific primers and Taq polymerase as described by Szczylik et al., Science 253, 562 (1991). Amplification products were separated on a 2% agarose gel, transferred to a nitrocellulose filter and hybridized with a synthetic 40-base c-abl fragment or 20-base β-actinfragment end-labeled with [γ^32 -P]-ATP and polynucleotide kinase. The c-abl probe recognizes an amplified 257-bp sequence containing the bcr-abl junction: the β-actin probe recognizes a 209-bp fragment, contained within the 5' and 3' β-actin primers (Tokunaga et al., Nucleic Acids Res. 14, 2829 (1986)).

BV173 cells = test: Clonogenic assay of tissues of leukemic SCID mice; format: in vivo, SCID mice (human leukemic cells)
Experimental: A second assay for leukemic disease comprised a clonogenic assay in semisolid medium. […] By contrast, BV173 cells formed numerous, rapidly growing colonies. To rule out the possibility that the presence of BV173 cells permitted the growth of murine progenitors, mixing experiments were carried out.
as §2
10^5 cells were plated in duplicate in 35×10 mm tissue culture dishes (Nunc, Inc., Naperville, Ill.) in HCC-4230 medium (Terry Fox Lab., Vancouver, Canada) supplemented with 2.5 mM L-glutamine, and allowed to grow for 12 days. Plates were scanned with an inverted microscope and total colony number was determined. The results are shown in FIG. 9 (C, untreated mouse; S, sense-treated mouse, AS, antisense-treated mouse).

[6] = 1 mg/day i.v. x9 from day +7, killed 26 days after last treatment (6 weeks)
[7] = 1 mg/mouse/day x9 from day +21, 26 days after treatment (8 weeks)

| Substance | morphology of cells isolated from residual colonies [1] | % Inhibition ([2]; Table 1, patient 1, number of colonies vs untreated) | Number of Colonies, Antisense-treated ([2]; Table 1, patient 3, 40 μg/ml at start, 20 μg/ml 18 h later, untreated 480 ± 88) | Colonies or Clusters, CFU-L (colonies formed from CML blast crisis cells) ([3]; Table 3, 40 μg/ml at 0 h, 20 μg/ml 18 h later, 12 days, mean ± SD, control 806 ± 70) | number of colonies arising from the CML blast crisis cells (CFU-L) ([3]; after twelve days in culture) | Colonies or Clusters, CFU-GM + CFU-L [4] | bcr-abl transcripts in tissues ([5]; from day +7, 12 days after last treatment (4 weeks), blood, spleen, bone marrow, liver, lung, brain) | bcr-abl (b2/a2) transcripts in tissues ([5]; from day +7, 26 days after last treatment (6 weeks), blood leukocytes, spleen, bone marrow, liver, lung, brain) | bcr-abl transcripts in tissues ([5]; from day +21, 12 days after last treatment (6 weeks), blood, spleen, bone marrow, liver, lungs, brain) | bcr-abl transcripts in tissues ([5]; from day +21, 26 days after treatment (8 weeks)) | leukemic colonies, bone marrow and spleen (BV173 cells; [6]) | leukemic colonies, peripheral blood leukocytes (BV173 cells; [6]) | leukemic colonies, bone marrow (BV173 cells; 1 mg/mouse/day i.v. x9 from day +7, killed 12 days after last treatment (4 weeks), untreated 353±52) | leukemic colonies, peripheral blood mononuclear cells (BV173 cells; 1 mg/mouse/day x9 from day +21, 12 days after last treatment (6 weeks), untreated 11.0±8.5) | leukemic colonies, spleen (BV173 cells; 1 mg/mouse/day x9 from day +21, 12 days after last treatment (6 weeks), untreated 80.5±12.0) | leukemic colonies, bone marrow (BV173 cells; 1 mg/mouse/day x9 from day +21, 12 days after last treatment (6 weeks), untreated 575.5±83.8) | leukemic colonies, bone marrow (BV173 cells; [7]) | leukemic colonies, peripheral blood (BV173 cells; [7]) | leukemic colonies, spleen (BV173 cells; [7]) |
| --- | --- | --- | --- | --- | --- | --- | --- | --- | --- | --- | --- | --- | --- | --- | --- | --- | --- | --- | --- |
| SEQ ID NO:3: synthetic 18-mer GAAGGGCTTC TTCCTTAT specific for the 18-nucleotide target sequence of the L-6 bcr-abl junction (antisense GAAGGGCTTCTTCCTTAT; chemistry not given here) | largely consisted of differentiating elements | 75% | 50 ± 12 colonies | 180 ± 14 colonies or clusters | much lower than that arising in the presence of the mismatched bcr-abl oligomer | 450 ± 42 colonies or clusters |  |  |  |  |  |  |  |  |  |  |  |  |  |
| SEQ ID NO:34: phosphorothioate sense sequence ATCAATAAGGAAGCCCTTCAGCG (23-mer b2a2 sense) (sense ATCAATAAGGAAGCCCTTCAGCG; all phosphorothioate, sugars by position and methylation of C not given here) |  |  |  |  |  |  | bcr-abl transcripts in each of the tissues analyzed except brain | readily detected in each tissue | Bcr-abl transcripts were detected | readily detectable | numerous leukemic colonies | A few colonies | 380±25 colonies | 14.5±4.9 colonies | 116.0±29.7 colonies | 668.5±59.1 colonies | 839.5±41.7 colonies | 51.0±41.7 colonies and 51.0±14.1 colonies | 548.5±128.0 colonies |
